Counter-ions that a name gives are not always drawn.
Molecular target: Glycogen synthase kinase-3 beta (Homo sapiens, UniProt P49841)
Assay: concentration-response blocking of human GSK3B – biochemical, luminescence, cell-free homogeneous, retest, dose response (AID 434954)

Glycogen synthase kinase-3 beta, sequence (P49841 whole entry): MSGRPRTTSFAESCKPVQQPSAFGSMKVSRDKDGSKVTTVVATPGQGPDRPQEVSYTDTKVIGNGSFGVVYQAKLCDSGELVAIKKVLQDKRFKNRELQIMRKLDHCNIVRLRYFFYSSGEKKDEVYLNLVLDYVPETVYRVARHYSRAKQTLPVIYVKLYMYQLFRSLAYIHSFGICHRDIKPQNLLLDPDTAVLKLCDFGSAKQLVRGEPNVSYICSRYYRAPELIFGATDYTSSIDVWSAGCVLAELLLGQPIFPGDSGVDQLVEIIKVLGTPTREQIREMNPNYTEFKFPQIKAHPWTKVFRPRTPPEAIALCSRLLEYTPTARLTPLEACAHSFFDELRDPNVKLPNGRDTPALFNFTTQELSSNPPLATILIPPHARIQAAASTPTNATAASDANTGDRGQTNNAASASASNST

EC50 [µM] | SMILES
> 300 | CCN(CC)Cc1c(C(=O)NN=Cc2cccc3ccccc23)nnn1-c1nonc1N [1-(4-amino-1,2,5-oxadiazol-3-yl)-5-(diethylaminomethyl)-N-(1-naphthalenylmethylideneamino)-4-triazolecarboxamide]
> 300 | CC(=O)Nc1nnc(CSCc2ccc(F)cc2)s1 [N-[5-[(4-fluorophenyl)methylsulfanylmethyl]-1,3,4-thiadiazol-2-yl]acetamide]
> 300 | COc1ccc(C(C)=NNC(=O)CNC(=O)Cc2ccccc2)c(OC)c1 [N-[2-[2-[1-(2,4-dimethoxyphenyl)ethylidene]hydrazinyl]-2-oxoethyl]-2-phenylacetamide]
> 300 | COc1ccccc1/C=C1\C(=O)Nc2ccccc21 [SMR000523491]
> 300 | Cc1ccc(N2CSC3=C(C#N)C(c4cccs4)CC(=O)N3C2)cc1 (stereo unspecified) [MLS000522486]
> 300 | CCCCc1cc(=O)oc2cc(C)cc(OC(C)C(=O)O)c12 (stereo unspecified) [SMR000043773]
23.6 | CC(C)(C)Sc1ccc(CN=O)cc1[N+](=O)[O-] [SMR000335018]
> 300 | COc1ccc2c(c1)-c1c(ssc1=S)C(C)(C)N2C(=O)CSC1=NCCS1 [2-(4,5-dihydrothiazol-2-ylthio)-1-(8-methoxy-4,4-dimethyl-1-sulfanylidene-5-dithiolo[3,4-c]quinolinyl)ethanone]
> 300 | Cc1nc(NCCCn2ccnc2)c2oc3ccccc3c2n1 [MLS000082652]
> 300 | CCOc1ccc(NC(=O)Nc2cnccn2)cc1 [SMR000297712]
> 300 | CC1CCCC(C)N1C(=O)CN1C(=O)C(C)(C)Oc2ccc(C(=O)NC3CCCC3)cc21 (stereo unspecified)
> 300 | COc1ccc(-c2cc(C(F)(F)F)nc(SCCC(=O)N3CCOCC3)n2)cc1 [3-[4-(4-methoxyphenyl)-6-(trifluoromethyl)pyrimidin-2-yl]sulfanyl-1-morpholin-4-ylpropan-1-one]
> 300 | Cc1ccccc1CSc1ccc2nnc(-c3ccccn3)n2n1 [SMR000323599]
> 300 | Cc1ccc(C(=O)Nc2ccccc2C(=O)NCc2ccco2)cc1S(=O)(=O)N1CCCCC1 [SMR000076380]
> 300 | COCCn1c(SCC(=O)Nc2ccc(S(=O)(=O)N(C)C)cc2)nc2ccccc21 [MLS000567111]
> 300 | CC(C)=CCc1c(O)cc(O)c2c(=O)c3c(CC=C(C)C)c(O)ccc3oc12 [2,6,8-trihydroxy-1,5-bis(3-methylbut-2-enyl)xanthen-9-one]
> 300 | CCNc1nc(N)nc(Oc2ccc(OCCOc3ccc(Cl)cc3Cl)nn2)n1 [6-[6-[2-(2,4-dichlorophenoxy)ethoxy]pyridazin-3-yl]oxy-2-N-ethyl-1,3,5-triazine-2,4-diamine]
> 300 | COc1cc(C=C2SC(Nc3ccc(O)cc3)=NC2=O)cc(OC)c1O [MLS000715043]
> 300 | COc1ccccc1NC(=S)NC1CCCCCCCCCCC1 [SMR000460399]
> 300 | C[N+](C)=c1ccn(CC(=O)N2c3ccccc3Sc3ccccc32)cc1
> 300 | Cc1cc(OCC(F)(F)C(F)(F)C(F)(F)C(F)F)nc(N)n1 [SMR000122155]
> 300 | CC(C)(C)C(=O)COC(=O)c1ccc(O)cc1
> 300 | COc1ccc2c(c1)C(=O)C(=O)N2 [5-methoxy-2,3-dihydro-1H-indole-2,3-dione]
> 300 | CCOc1cc(C2c3c(C)n[nH]c3C(=O)N2c2ccc(C)cc2)ccc1O (stereo unspecified) [SMR000035605]

EC50 [µM] | SMILES
> 300 | CCN1CCc2c(sc(NC(=O)Cc3ccccc3)c2C(N)=O)C1 [6-ethyl-2-[(1-oxo-2-phenylethyl)amino]-5,7-dihydro-4H-thieno[2,3-c]pyridine-3-carboxamide;hydrochloride]
> 300 | CC(=O)Nc1c(-c2ccccc2)nc2ccc(Cl)cn12 [MLS001077169]
> 300 | N#CCCn1cc(C(CC(=O)c2ccccc2)C(=O)O)c2ccccc21 (stereo unspecified) [MLS000049352]
> 300 | O=C(CSc1nnc(-c2ccncc2)o1)Oc1ccccc1 [SMR000006341]
107 | COc1ccc(CC(=O)OCC(=O)Nc2ccc(Cl)cn2)cc1 [MLS000566076]
> 300 | CCOC(=O)C1C(C)=Nc2ncnn2C1c1cc(OC)ccc1OC (stereo unspecified) [MLS000112815]
19.7 | c1csc(CN=Nc2ncnc3nc[nH]c23)c1 [MLS000419130]
> 300 | CN(c1ccccc1C(=O)Nc1cccc(C(F)(F)F)c1)S(C)(=O)=O [MLS000096933]
> 300 | CCn1c(SCC(=O)Nc2ccc(N(C)C)cc2)nnc1C1CC1 [SMR000601384]
> 300 | CC(=O)c1ccc(NC(=O)CN2C(=O)CCC2=O)cc1 [N-(4-acetylphenyl)-2-(2,5-dioxo-1-pyrrolidinyl)acetamide]
23.8 | CCOC(=O)c1nnn(-c2nonc2N)c1COc1ccccc1 [ethyl 1-(4-amino-1,2,5-oxadiazol-3-yl)-5-(phenoxymethyl)triazole-4-carboxylate]
> 300 | COC(=O)c1sc(=S)n(Cc2ccccc2)c1C [methyl 3-benzyl-4-methyl-2-sulfanylidene-1,3-thiazole-5-carboxylate]
> 300 | CC(=O)Nc1ccc(S(=O)(=O)N(Cc2cccnc2)Cc2cc3ccccc3nc2O)cc1 [N-[4-[(2-oxidanylidene-1H-quinolin-3-yl)methyl-(pyridin-3-ylmethyl)sulfamoyl]phenyl]ethanamide]
> 300 | COc1cccc(C2CC(c3ccc(Cl)cc3)n3nc(N)nc3N2)c1 (stereo unspecified) [7-(4-chlorophenyl)-5-(3-methoxyphenyl)-1,5,6,7-tetrahydro-[1,2,4]triazolo[1,5-a]pyrimidin-2-amine]
25.9 | COC(=O)c1nnn(-c2nonc2N)c1COc1ccc(C=O)cc1OC [methyl 1-(4-azanyl-1,2,5-oxadiazol-3-yl)-5-[(4-methanoyl-2-methoxy-phenoxy)methyl]-1,2,3-triazole-4-carboxylate]
> 300 | Cc1ccc(C(=O)COC(=O)c2ccc(O)cc2)cc1
> 300 | CN(C)c1ccc(/N=N/c2ccc(S(N)(=O)=O)cc2)cc1
16.1 | Oc1ccc(CN=Nc2ccc(C(F)(F)F)cn2)cc1O [(4Z)-2-hydroxy-4-[[2-[5-(trifluoromethyl)pyridin-2-yl]hydrazinyl]methylidene]cyclohexa-2,5-dien-1-one]
> 300 | CC(Cl)C(=O)Nc1ncc(C(F)(F)F)cc1Cl (stereo unspecified) [SMR000152526]
39.8 | CC1=C(C#N)C(=O)NC(=O)C1=NNc1ccc(Cl)c(C(=O)O)c1 [MLS001213189]
> 300 | CCOc1ccc(-c2nnc3ccc(SC)nn23)cc1 [SMR000028968]
11.1 | COc1ccc(CNC(=O)CN(Cc2ccccc2)C(=O)CCC(=O)Nc2nccs2)cc1 [N'-[2-[(4-methoxyphenyl)methylamino]-2-oxoethyl]-N'-(phenylmethyl)-N-(2-thiazolyl)butanediamide]
> 300 | COc1ccc(-c2nn(-c3ccccc3)cc2/C=C/C(=O)N2CCOCC2)cc1OC [MLS001017845]
> 300 | CCOC(=O)c1c(C)[nH]c(C)c1S(=O)(=O)N(C)CC(=O)Nc1ccccc1 [SMR000630545]

EC50 [µM] | SMILES
3.03 | CC(=O)c1sc(NC(=O)CCNC(=O)c2ccco2)nc1-c1ccccc1
> 300 | Cc1ccc(Nc2nc(NCCCN3CCOCC3)nc(N)c2[N+](=O)[O-])cc1 [N4-(4-methylphenyl)-N2-(3-morpholin-4-ylpropyl)-5-nitro-pyrimidine-2,4,6-triamine]
> 300 | O=C1CCCc2oc3ccc(O)cc3c21 [SMR000125008]
40 | C=CCn1c(SCC(=O)Nc2ccc(Cl)cn2)nnc1C1CC1
13.2 | COc1ccc(C(=O)ON=C(N)c2ccccn2)cc1 [SMR000608101]
5.26 | CCOC(=O)c1cnc2ccc(OC)cc2c1Nc1ccc(N2CCN(C)CC2)cc1 [6-methoxy-4-[4-(4-methyl-1-piperazinyl)anilino]-3-quinolinecarboxylic acid ethyl ester]
2.74 | COc1ccc(OC)c(Nc2nc(NCCCN(C)C)nc(N)c2[N+](=O)[O-])c1 [3-[[4-amino-6-(2,5-dimethoxyanilino)-5-nitro-pyrimidin-2-yl]amino]propyl-dimethyl-amine]
105 | NC(=O)c1c(NC(=O)CCCn2cnc([N+](=O)[O-])n2)sc2c1CCCC2 [2-{[4-(3-nitro-1H-1,2,4-triazol-1-yl)butanoyl]amino}-4,5,6,7-tetrahydro-1-benzothiophene-3-carboxamide]
> 300 | CC(C(=O)NC1CCCCCC1)n1cc([N+](=O)[O-])cn1 (stereo unspecified) [N-cycloheptyl-2-(4-nitro-1-pyrazolyl)propanamide]
> 300 | COC(=O)c1cc(S(=O)(=O)N2CCCC(C)C2)c[nH]1 (stereo unspecified)
6.57 | COc1cc(/C=C(\C#N)C(=O)c2c[nH]c3ccccc23)cc(OC)c1O [(E)-3-(4-hydroxy-3,5-dimethoxyphenyl)-2-(1H-indole-3-carbonyl)prop-2-enenitrile]
> 300 | Cn1c(=S)n(CCC(=O)O)c2ccccc21 [SMR000273673]
12.8 | O=NCc1ccc(Oc2ccccc2Cl)c([N+](=O)[O-])c1 [N-[[4-(2-chlorophenoxy)-3-nitrophenyl]methylidene]hydroxylamine]
> 300 | CC1(C)CC(=O)C=C(Nc2ccc(F)cc2F)C1
> 300 | O=C1C(=O)N(c2ccccn2)C(c2ccc(Br)cc2)C1C(=O)c1ccc(Br)cc1 (stereo unspecified)
> 300 | CCCc1c(C(=O)NN=Cc2ccncc2)nnn1-c1nonc1N
> 300 | COC(=O)c1sccc1NC(=O)c1ccc(Br)s1 [3-[(5-bromothiophene-2-carbonyl)amino]thiophene-2-carboxylic acid methyl ester]
> 300 | Cc1cc([N+](=O)[O-])c(C)cc1-c1ccc(/C=N/n2cnnc2)o1 [1-[5-(2,5-dimethyl-4-nitrophenyl)furan-2-yl]-N-(1,2,4-triazol-4-yl)methanimine]
> 300 | Cc1cc(C(=O)c2ccccc2)c(NC(=O)CN2CCOCC2)s1 [N-[5-methyl-3-(phenylcarbonyl)thiophen-2-yl]-2-morpholin-4-yl-ethanamide]
> 300 | COc1ccccc1-n1c(S)nnc1-c1ccco1 [MLS001214684]
> 300 | Cc1ccc(-c2oc3ccccc3c(=O)c2O)cc1 [MLS000114653]
> 300 | COc1cc(C2C(C(=O)c3cccs3)C(=O)C(=O)N2CCN2CCOCC2)ccc1OCCC(C)C (stereo unspecified) [SMR000476070]
24.7 | CCN1/C(=C/C(C)=C/c2sc3ccccc3[n+]2CC)Sc2ccccc21 [SMR000354813]

From BindingDB's records for doi:10.7270/Q2TX3CTT (Broad Institute, 2010)
